Common to all, as to assay type: cell-based
Assay [1] has as its system 786-0 cells. The assay can be described thus: Apoptosis in 786-0 cells (Annexin V / PI flow cytometry). As to conditions: overnight. More on the design: unit not given here. The procedure: In order to evaluate the mechanism of action of these compounds, 786-0 cell cultures were treated with Cpd 9 or Cpd 28 at different concentrations overnight and then analyzed for apoptotic induction. The cells were stained using standard methods with Annexin V and/or Propedium iodine (PI) at room temperature for 15 minutes. Apoptotic cells at early (Annexin V positive) or late stage (both Annexin V and PI positive) were detected by Flow Cytometry.

The subject of assay [2] is HL60 (AML). Put plainly: Cell proliferation MTS assay, HL60. The settings on record: Homo sapiens, HL-60, 72 hours. The procedure:
(§1) All cell lines were obtained from ATCC and cultured and plated according to ATCC recommendations. Cells were cultured in complete culture media containing 10% heat-inactivated fetal bovine serum (FBS, Mediatech, Inc.). For adherent cell lines, once cells reached 70% confluency, they were trypsinized and resuspended in phenol red free RPMI media (Mediatech, Inc.) plus 10% heat-inactivated FBS (assay buffer) and 100 μL aliquots were plated into each well of 96-well microtiter plates at a final density of 1,000-2,000 cells/well. Cells were incubated overnight at 37° C. in 5% CO2, and treated with test compounds on the next day. For suspension cell lines, cells were resuspended in assay buffer, plated into 96-well microtiter plates at a density of 10^4-10^5 cells/well/100 μL, and treatment was started on the same day. Cells were treated with vehicle (DMSO) and test compounds for 72 hours at concentration of 100, 70, 40, 20, 10, 5, 2.5, 1.25, 0.5 and 0.2 μM in four replicates at 37° C. in 5% CO2.

Assay [3] relates to A549 (Lung). Put plainly: Cell proliferation MTS assay, A549. As to conditions: Homo sapiens, 72 hours. The procedure: as §1
Assay [4] concerns MCF7 (Breast). Put plainly: Cell proliferation MTS assay, MCF7. The settings on record: Homo sapiens, 72 hours. The procedure:
as §1

The subject of assay [5] is H1299 cells. Put plainly: Cellular proliferation (Example B method), H1299. As to conditions: Homo sapiens, NCI-H1299; H1299, non-small cell lung cancer. The procedure:
PC3 cells were obtained from the American Type Culture Collection (ATCC, Manassas, Va., Cat.# CRL-1435) Two thousand cells from the prostate cancer line PC3 were placed in 50 μL of complete RPMI 1640 media (Invitrogen, Carlsbad, Calif., Cat.#22400-105) with 10% fetal bovine serum (Invitrogen, Carlsbad, Calif., Cat.#10438-026) into each well of 96 well cell culture plates in a hexaplicate sampling pattern. A 50 μL aliquot of test compound (prepared from stock test compounds in DMSO diluted into media) was added to the appropriate well such that the final concentrations of test compound were 200, 40, 8, 1.6, 0.32, 0.064, 0.0128, 0.00256, and 0 μM and the final DMSO concentration was less than or equal to 0.2%.
The plates were incubated for 72 hours 37° C. in an atmosphere of 5% CO2. At the end of this time a 10 μL aliquot of WST solution (Roche Applied Science, Mannheim, Germany) was added into each of the wells. Cells were exposed to the WST solution for 4 hours. A SpectraMax Plus spectrophotometric plate reader (Molecular Devices, Sunnydale, Calif.) was then used to measure the optical density at 450 nm (OD450 nm). Sigmoidal curves were drawn for the dose responses and IC50 values were calculated using the software package GraphPad Prism4 (GraphPad Software, Inc., San Diego, Calif.).
Several other cancer cell lines were obtained from ATCC and grown according to their recommendations and treated with test compounds to obtain the concentration of test compound that inhibited the cellular proliferation by 50% of no-treatment controls. These IC50 values (μM) are listed in Table 7 below obtained by the methods described in Example B: […]

Assay [6] concerns HCT116 (Colon). Put plainly: Cell proliferation MTS assay, HCT116. As to conditions: Homo sapiens, HCT-116, 72 hours. Here is the method: as §1
Assay [7] concerns RPM18226 (Myeloma). The assay can be described thus: Cell proliferation MTS assay, RPM18226. The settings on record: 72 hours. Here is the method:
as §1

In assay [8] the test system is pAKT serine 473 level in PC3 cells. The assay can be described thus: pAKT status in IGF-1 stimulated PC3 cells (Ser473 pAKT ELISA). As to conditions: Homo sapiens, PC-3; IGF-1 stimulated PC3 cells; read-out: PC3 pAKT IC50. Here is the method: PC3 cells were obtained from the American Type Culture Collection (ATCC, Manassas, Va., Cat.# CRL-1435). Two million cells from the prostate cancer line PC3 were placed into 6 cm culture dishes and allowed to grow in complete RPMI 1640 media (Invitrogen, Carlsbad, Calif., Cat.#22400-105) with 10% fetal bovine serum (Invitrogen, Carlsbad, Calif., Cat.#10438-026). After this time period the cells were serum starved for 5 hours followed by application of the test compound. Test compound was added as a DMSO (dimethyl sulfoxide) solution such that the final DMSO concentration in the cell media was less than or equal to 0.2% by volume After 30 minutes of exposure the growth factor stimulant, human IGF-1 (PeproTech, Inc., Rocky Hill, N.J., Cat.#100-11), was added to a final concentration of 0.1 μg/ml in each well. After 30 minutes of IGF-1 exposure, cells were removed from the media and cell lysates were prepared using RIPA Lysis buffer (Upstate, Lake Placid, N.Y., Cat.#20-188), keeping on ice. The pAKT serine 473 level was measured in duplicate samples of the cell lysates using commercially available assays such as the Pathscan® Sandwich ELISA kit for Ser473 pAKT (Cell Signaling, Danvers, Mass., Cat.#7160). A SpectraMax Plus spectrophotometric plate reader (Molecular Devices, Sunnydale, Calif.) was used to measure the optical density signal for pAKT at 450 nm (OD450 nm). The pAKT OD450 nm readings were normalized by total protein amount in the cell lysates determined by standard methods.
Concentrations of test compounds required to inhibit IGF stimulated pAKT levels to 50% of maximum levels in PC3 cells (termed DM50 for decreased maximum 50%) were calculated by inputting the dose responses in the software package GraphPad Prism4 (GraphPad Software, Inc., San Diego, Calif.).
By these methods a number of compounds of the invention were evaluated and the concentration needed to reduce the detectable pAKT to 50% of the maximal uninhibited signal was calculated. These values (in μMolar units) are listed in Table 8 under the column heading PC3 pAKT IC50 (μMolar).

SMILES strings stand for the structures. pIC50: −log10 of the molar value.

As to `O=c1cc(N2CCOCC2)oc2c(-c3ccc4c(c3)OCCO4)csc12` [Compound 28, 3-(2,3-dihydrobenzo[b][1,4]dioxin-6-yl)-5-morpholino-7H-thieno[3,2-b]pyran-7-one], the figures for the “Early stage apoptotic cells” value in assay [1] (5 μM) and in assay [1] (10 μM) were 10.4 and 16.45, respectively. The “Late stage apoptotic cells” value is given as 11.56 in assay [1] (5 μM) and 15.43 in assay [1] (10 μM). Further, the results for the “Total Apoptotic Cells” value in assay [1] (5 μM) and in assay [1] (10 μM) were 21.96 and 31.88, respectively. The pIC50 in assay [2] is 5.51; in assay [3], 5.60; in assay [4] it was 5.64; in assay [5] it was 6.02; in assay [6] it was 5.66; in assay [7], 6.14. In addition, the negative logarithm of the IC50 (pIC50) in assay [8] was 6.36 to 6.79.
